The subject of one test is Escherichia coli ML35. Nature of the test: Radial diffusion antibacterial assay, E. coli ML35. The following applies: 5 μl of peptide, 10 to 300 μg/ml, FIG. 7. The test is classed as cell-based. On the procedure:
(§1) FIG. 7. Antibacterial activities of purified beta defensins. Nutrient agar plates seeded with E. coli ML35 (.oval-solid.) or S. aureus 502A (.smallcircle.) were used to assess antibacterial activity of 13 neutrophil beta-defensins in addition to rabbit defensin NP-1, bactenecin dodecapeptide, and indolicidin. Activity is expressed as the diameter of clearing (mm) resulting from the application of 5 μl of peptide at the concentrations shown.
(§2) Antimicrobial assay. Escherichia coli ML35 and Staphylococcus aureus 502A were utilized in a radial diffusion assay recently described by Lehrer et al. (J. Immunol. Meth. 167-173 (1991)). Bacteria were grown to mid-log phase in trypticase soy broth (TSB), diluted into 10 ml of warm (43° C.) 1% agarose containing 3 mg of TSB, buffered with 10 mM sodium phosphate, pH 7.4. Five μl of each peptide solution was pipetted into wells formed with a 4 mm cork bored and allowed to incubate at 37° C. for 3-4 hours. Plates were then overlaid with 10 ml of sterile 1% agar containing 2×TSB. Following incubation for 18 to 24 hours, the diameter of the clear zone surrounding each well was measured using a magnified transilluminator.
(§3) Antimicrobial activity of beta-defensins. The antibacterial activity of each beta-defensin was evaluated using Staphylococcus aureus 502A and Escherichia coil ML35 as test organisms. Using a sensitive radial diffusion assay, each peptide was tested against the two bacterial organisms with beta-defensin concentrations ranging from 10 to 300 μg/ml. The data presented in FIG. 7 reveal the dose-dependent activity of each peptide as measured by the size of the clear zone surrounding the sample well. In most cases, the log of the peptide concentration was linearly related to the diameter of the growth-free zone. […] In most cases, the zone of clearing was greater against E. coli than S. aureus.

The subject of test [1] is Staphylococcus aureus 502A. Nature of the test: Radial diffusion antibacterial assay, S. aureus 502A. It is filed as cell-based. Conditions: 5 μl of peptide, 10 to 300 μg/ml, FIG. 7. On the procedure: as §1, §2, §3
The test system of the next test is E. coli. Conditions: background, earlier report; cited from earlier work.
A further test deals with S. aureus. Conditions: background, earlier report; cited from earlier work.
Another test has as its system Candida albicans 16820. It is filed as cell-based. The following applies: 0 to 50 μg/ml, 60 minutes, FIG. 15. On the procedure:
(§4) Candida albicans 16820 and Cryptococcus neoformans 271A were grown with shaking for 24 hours or days, respectively, at 37° C. in Sabouraud Dextrose Broth (SDB, DIFCO). To obtain midlogarithmic phase organisms, 1.0 ml of overnight culture was inoculated into 50 ml of SDB and incubated for 3 hours (C. albicans) or overnight (C. neoformans) with shaking. The cultures were centrifuged at 10,000 rpm for 10 minutes at 4° C., washed with cold 10 mM phosphate buffer, pH 7.4, and resuspended in cold buffer to a concentration of 1×10^7 cells/ml. The fungicidal assay mixture contained 30 1 of the phosphate buffer, 10 μl (1×10^5 cells) of the fungal stock suspension, and 10 μl of peptide giving final peptide concentrations of 0 to 50 μg/ml. Incubations were carried out at 37° C. for 60 minutes, after which a 30 μl aliquot was removed and diluted 10, 100, and 1000-fold. Duplicate 100 μl samples of each dilution were spread onto SDB plates and incubated for 18 hours at 37° C. Plates were incubated for 1 or 2 days at 37° C. Surviving organisms were quantitated by colony counting using a Darkfield Colony Counter (Quebec).

Test [2] relates to Cryptococcus neoformans 271A. Nature of the test: Fungicidal assay (colony counting), Cryptococcus neoformans 271A. The test is classed as cell-based. The following applies: 60 minutes, FIG. 16; for fungicidal potency against C. neoformans: 0 to 50 μg/ml; for fungicidal effectiveness against C. neoformans at highest concentration: 50 μg/ml. The procedure:
as §4

The subject of another test is E. coli ML35. Description: Bactericidal assay (colony counting), E. coli ML35. The test is classed as cell-based, Escherichia coli. The following applies: below 50 μg/ml, 30 minutes, FIG. 14. On the procedure:
A 1:500 dilution of overnight cultures of E. coli ML35 and S. aureus 502A was incubated with shaking for 2.5 to 3 hours at 37° C. in trypticase soy broth (TSB). The bacteria were centrifuged at 10,000 rpm for 10 minutes at 4 c, washed with cold 10 mM sodium phosphate buffer, pH 7.4 and resuspended in cold phosphate buffer to a concentration of 1×10^7 cells/ml. Solutions of various concentrations of BNBDs were made up in 10 mM sodium phosphate buffer, pH 7.4. The bactericidal assay mixture contained 30 μl of the phosphate buffer, 10 μl (1×10^5 cells) of the bacterial stock solution, and 10 μl of peptide giving final peptide concentrations of 0 to 50 μg/ml. Incubations were carried out at 37° C. for 30 minutes, after which a 30 μl aliquot was removed and diluted 10, 100, and 1000-fold. Duplicate 100 μl samples of each dilution were spread into TSB plates and incubated for 18 hours at 37° C. Colonies were counted with the Darkfield Colony Counter (Quebec).

“Also recorded” adds a separate entry of the source. Bridges are numbered along the chain shown (N, C = ends). Where no end group is shown, it is not given here. [ ]: non-standard residue; d: D form. pGlu = O=C1CC[C@@H](C(=O)O)N1

The text below walks through data of US5821224A, “Antimicrobial peptides from bovine neutrophils” (Regents of the University of California, priority 1994, dated 1998).

Consider `CC[C@H](C)[C@H](N)C(=O)N[C@@H](CC(C)C)C(=O)N1CCC[C@H]1C(=O)N[C@@H](Cc1c[nH]c2ccccc12)C(=O)N[C@@H](CCCCN)C(=O)N[C@@H](Cc1c[nH]c2ccccc12)C(=O)N1CCC[C@H]1C(=O)N[C@@H](Cc1c[nH]c2ccccc12)C(=O)N[C@@H](Cc1c[nH]c2ccccc12)C(=O)N1CCC[C@H]1C(=O)N[C@@H](Cc1c[nH]c2ccccc12)C(=O)N[C@@H](CCCNC(=N)N)C(=O)N[C@@H](CCCNC(=N)N)C(N)=O` [indolicidin, reference compound], for which the “antibacterial activity (diameter of clearing) against E. coli” value (“antibacterial activity … against E. coli” below) in the test with Escherichia coli ML35 is listed as “the most active peptide against E. coli”. The “antibacterial activity (diameter of clearing) against S. aureus” value (“antibacterial activity … against S. aureus” below) in test [1] is “nearly as active as rabbit NP-1”. For the same compound, the “bactericidal activity against E. coli” value with E. coli was “potent bactericidal activity”. Further, in the test with S. aureus, the “bactericidal activity against S. aureus” value is “potent bactericidal activity”.
Regarding “BNBD-1: bovine neutrophil beta-defensin 1, 38 residues, purified from neutrophil granules; sequence in FIG. 5 (SEQ ID NO: 1) (DFASCHTNGGICLPNRCPGHMIQIGICFRPRVKCCRSW; not fully specified (bridges); ends and bridges not checked)”, the “antibacterial activity … against S. aureus” value in test [1] was “all but BNBD-1 and BNBD-5 were active”.
Turning to “BNBD-2: bovine neutrophil beta-defensin 2, 40 residues; identical to BNBD-3 without the pyroglutamyl-glycine extension (SEQ ID NO: 2) (VRNHVTCRINRGFCVPIRCPGRTRQIGTCFGPRIKCCRSW; disulfide 14-29, 19-37, 7-36)”, the “antibacterial activity … against E. coli” value in the test on Escherichia coli ML35 is reported as “equivalent antibacterial activity”. For the same compound, in test [1], the “antibacterial activity … against S. aureus” value was “equivalent antibacterial activity”.
Regarding “BNBD-5: bovine neutrophil beta-defensin 5, 40 residues (SEQ ID NO: 5)”, the “antibacterial activity … against S. aureus” value in test [1] is “all but BNBD-1 and BNBD-5 were active”.
As to “BNBD-7: bovine neutrophil beta-defensin 7, 40 residues (SEQ ID NO: 7)”, the “antibacterial activity … against E. coli” value with Escherichia coli ML35 is on record as “most active beta-defensins”. In addition, the “antibacterial activity … against S. aureus” value in test [1] is “most active beta-defensins”.
For the compound “BNBD-8: bovine neutrophil beta-defensin 8, 38 residues; identical to BNBD-9 without the pyroglutamyl-glycine extension (SEQ ID NO: 8)”, in the test on Escherichia coli ML35, the “antibacterial activity … against E. coli” value is “differ in antibacterial potency”. For the same compound, the “antibacterial activity … against S. aureus” value in test [1] is “differ in antibacterial potency”.
As for “BNBD-9: bovine neutrophil beta-defensin 9, 40 residues, N-terminal pyroglutamyl (SEQ ID NO: 9) ([pGlu]GVRNFVTCRINRGFCVPIRCPGHRRQIGTCLGPQIKCCR; also: cyclic, type of ring not given here)”, the “antibacterial activity … against E. coli” value in the test on Escherichia coli ML35 is reported as “most active beta-defensins; also recorded: the greater in vitro activity”. In addition, in test [1], the “antibacterial activity … against S. aureus” value is “most active beta-defensins; also recorded: the greater in vitro activity”.
As for “BNBD-11: bovine neutrophil beta-defensin 11, 38 residues (SEQ ID NO: 11) (GPLSCRRNGGVCIPIRCPGPMRQIGTCFGRPVKCCRSW; disulfide 12-27, 17-35, 5-34; ends not checked)”, the “fungicidal activity against C. albicans” value in the test on Candida albicans 16820 is “completely inactive”. Further, the “fungicidal potency against C. neoformans” value in test [2] is reported as “substantially less active”.
Regarding “BNBD-12: bovine neutrophil beta-defensin 12, 38 residues; disulfide connectivities determined (SEQ ID NO: 12) (GPLSCGRNGGVCIPIRCPVPMRQIGTCFGRPVKCCRSW; disulfide 12-27, 17-35, 5-34)”, in the test on Escherichia coli ML35, the “antibacterial activity … against E. coli” value is reported as “most active beta-defensins; also recorded: approximately equal”. In addition, the “antibacterial activity … against S. aureus” value in test [1] is recorded as “most active beta-defensins; also recorded: approximately equal”.
On to “H-SGISGPLSCGRNGGVCIPIRCPVPMRQIGTCFGRPVKCCRSW (disulfide 9-38, 16-31, 21-39) [BNBD-13]”, for which the “antibacterial activity … against E. coli” value with Escherichia coli ML35 is reported as “most active beta-defensins; also recorded: approximately equal”. Further, in test [1], the “antibacterial activity … against S. aureus” value is “most active beta-defensins; also recorded: approximately equal”. The “fungicidal effectiveness against C. neoformans at highest concentration” value in test [2] is “equally effective”.
For “[pGlu]GVRNHVTCRINRGFCVPIRCPGRTRQIGTCFGPRIKCCRSW (disulfide 9-38, 16-31, 21-39) [BNBD-3]”, the “antibacterial activity … against E. coli” value in the test on Escherichia coli ML35 is reported as “equivalent antibacterial activity”. Also, the “antibacterial activity … against S. aureus” value in test [1] is reported as “equivalent antibacterial activity”. Moreover, in the test on E. coli ML35, the “bactericidal potency against E. coli at lower concentrations” value was “the greatest”. For the same compound, the “fungicidal potency against C. neoformans” value in test [2] was “the most potent”.
Turning to “[pGlu]RVRNPQSCRWNMGVCIPFLCRVGMRQIGTCFGPRVPCCRR (disulfide 9-38, 16-31, 21-39) [BNBD-4]”, the “fungicidal effectiveness against C. neoformans at highest concentration” value in test [2] is on record as “equally effective”.
